Results as given in patent US8653026B2, “Treatment of type 2 diabetes with FTY720” (Diapin Therapeutics LLC, priority 2011, dated 2014).

Experiments:
Type in all cases: in vivo, mouse
db/db mice = assay: Weekly fasting blood glucose in db/db mice given oral FTY720
Procedure: FIG. 2A. Time course of the fasting glucose levels of db/db mice with or without oral FTY720. Open circle (∘), FTY720-untreated group; solid circle (●), pre-diabetic db/db mice (Fasting glucose<126 mg/dL) at six-week-old treated with 10 mg/kg FTY720; and triangle (▴), diabetic db/db mice (Fasting glucose≅430 mg/dL) at nine-week-old treated with 10 mg/kg FTY720 (n=4). I, Fasting glucose of mice at the age of 6 weeks to 12 weeks at the daily dosage of 10 mg/kg FTY720 (n=20 for the control and FTY720 treated pre-diabetic mice, respectively); II, fasting glucose levels of mice at the age of 12 weeks to 20 weeks at the daily dosage of 10 mg/kg FTY720 (n=6 for the control and FTY720 treated mice, respectively); III, fasting glucose levels of mice at the age of 20 weeks to 29 weeks at the […] dosage of 10 mg/kg FTY720 (n=2 for control and FTY720 treated mice, respectively); IV, fasting glucose levels from the mouse without FTY720 treatment after age of 29 weeks (n=2 for control and FTY720 treated mice, respectively).
Animals and Procedures—Five-week-old female db/db mice (BKS.Cg-m+/−Leprdb) were purchased from Jackson Laboratories (Bar Harbor, Me.). Mice were housed under controlled light (12 h light/12 h dark) and temperature conditions, and had free access to food (normal rodent chow) and water. All procedures were conducted in accordance with the guidelines on Animal Care and were approved by the Institutional Animal Care and Use Committee (IACUC) of Mount Sinai School of Medicine. After 1 week, the fasting glucose levels of the 6-week-old mice were measured. Mice with normal glucose levels (<126 mg/dl) were randomly divided into control and FTY720 treatment groups. Mice in the FTY720-treated group were fed 10 mg/kg of FTY720 daily by feeding tube and their food intake and body weight were measured twice a week. Fasting glucose levels were measured at the end of each week. At 12 weeks of age (when the mice had been treated for 6 weeks), all mice were subjected to metabolic analysis. After metabolic analysis, the pancreases were removed from the mice at 13 and 16 weeks of age for immunohistochemical analysis, quantitation of islet area, or islet isolation.
To rigorously determine the effects of FTY720 in vivo, pre-diabetic (age of six weeks, fasting glucose<126 mg/dL) and diabetic (age of 8-9 weeks, fasting glucose=430 mg/dL) female db/db mice were fed daily with FTY720 (+FTY720) for 29 weeks, and monitored by weekly fasting blood glucose measurements.

pancreatic islets = assay: Islet morphology (HE and insulin immunostaining) and islet area quantification in pancreas
Description: FIG. 7. Hematoxylin and eosin (HE) staining of pancreas from the FTY720-untreated and the treated mice. After 6 and 9 weeks of treatment, pancreases were removed from the db/db mice and embedded in paraffin. Paraffin sections (10 μm thick) were stained with HE and analyzed with a microscope (Scale bar, 50 μm).
FIG. 8. Insulin immunostaining (green fluorescence) of the pancreatic islets. After 6 and 9 weeks treatment of FTY720, pancreases were removed from the db/db mice and embedded in paraffin. Paraffin sections (10 μm thick) were immunostained fluorescently for insulin (green color) (Scale bar 50 μm).
FIG. 9. Stereological quantification of the islet areas in the FTY720-untreated and the FTY720-treated db/db mice. […]
To assess islet area in pancreas after 6 weeks of treatment with FTY720, six consecutive paraffin sections (10 μm) from a pancreas (10 pancreases for the control and 9 pancreases for the FTY720-treated group) were used. All islet images on a whole section were taken by a Axioplan 2 microscope at X10 magnification, each islet area was measured by the Java-based image-processing program ImageJ (National Institutes of Health, Bethesda, Md.), and the sum of all islet areas from a section was considered to be the islet area per pancreas.

PDX-1 = PDX-1 expression in isolated islets from db/db mice; conditions: islets from FTY720-treated db/db mice
Procedure: FIG. 14. PDX-1 expression in the isolated islets from the db/db mice with (+FTY720) or without FTY720 (−FTY720) treatment (*p=0.0006).
Islets were isolated from pancreases removed from the 13-week-old untreated and FTY720-treated db/db mice by Liberase (Roche Diagnostics) digestion, followed by discontinuous Ficoll gradient separation and manual stereomicroscopic selection to exclude contaminating tissues (30). Isolated islets (or INS-1 cells) were cultured in the medium (composed of RPMI 1640 medium supplemented with 10% fetal bovine serum, 2 mM L-glutamine, 1% sodium pyruvate, 50 μM β-mercaptoethanol, 100 units/ml of penicillin, and 100 μg/ml of streptomycin). For treatment of INS-1 cells, the cells were plated in RPMI medium overnight and changed to Hanks' balanced salt solution containing 2 mM glucose and 0.5% FBS overnight. Then the cells were treated with various conditions in the same medium for 24 hours.
Expression of pancreatic and duodenal homeobox 1 (PDX-1), a transcription factor, is required for pancreatic development and β-cell maturation.

S1P1 = assay: S1P receptor expression in islets from db/db mice: S1P1; conditions: after FTY720 treatment of db/db mice
Description: FIG. 15. Expression of 4 FTY720-bound S1P receptors in the islets isolated from the db/db mice.
FTY720 is phosphorylated in vivo to form FTY720-P that binds S1P1, S1P3, S1P4, and S1P5 but not S1P2 (25). We determined the expression of these receptors in the islets isolated from the untreated and FTY720-treated db/db mice.

CCCCCCCCc1ccc(CCC(N)(CO)CO)cc1 [FTY720, 2-amino-2-[2-(4-octylphenyl)ethyl]propane-1,3-diol]
distribution of fasting glucose levels (db/db mice; all FTY720-treated db/db mice, after 6 weeks treatment): normalized | fasting glucose levels after FTY720 administration was ceased (db/db mice; db/db mice, administration ceased completely after 29-weeks treatment): well controlled | fasting glucose levels (db/db mice; diabetic db/db mice (glucose ≧350 mg/dL), after six weeks of oral FTY720 10 mg/kg): became normal | fasting glucose levels (screen) (db/db mice; i.p. injected into or orally administrated to db/db mice): capable of normalizing | fasting glucose levels (db/db mice; pre-diabetic db/db mice (six weeks old, fasting glucose <126 mg/dL), 10 mg/kg FTY720 oral daily, untreated about 500 mg/dL by age 12 weeks): ~126 mg/dL | pancreatic islet size (stereological quantification of islet areas) (pancreatic islets; db/db mice after 6 weeks of treatment, vs untreated group): significantly larger | islet morphology (pancreatic islets; db/db mice, H&E and insulin immunostaining, after 6 and 9 weeks of treatment): normal islet morphology | PDX-1 expression relative to islets from untreated mice (PDX-1): 6 fold | S1P1 expression in islets (S1P1): significantly elevated
